Molecular target: hVR1 receptors (Homo sapiens, UniProt Q8NER1)
Test: [3H] RTX binding assay, human VR1
Parameters: expressed in transfected cells; host or cells: HEK293 (membrane preparation)
Conditions: inhibition of [3H] RTX binding, membranes of HEK293 cells transfected with human VR1
Description: Compounds of the present invention were tested for their ability to inhibit the binding of [^3H] RTX to hVR1 receptors in a [^3H] RTX binding assay as previously described (Zhang, Sui-Po. Improved ligand binding assays for vanilloid receptors. PCT Int. Appl. (2002), 29 pp. CODEN: PIXXD2 WO 0233411 A1 20020425 AN 2002:315209; Grant, Elfrida R.; Dubin, Adrienne E.; Zhang, Sui-Po; Zivin, Robert A.; Zhong, Zhong Simultaneous intracellular calcium and sodium flux imaging in human vanilloid receptor 1 (VR1)-transfected human embryonic kidney cells: a method to resolve ionic dependence of VR1-mediated cell death. Journal of Pharmacology and Experimental Therapeutics (2002), 300(1), 9-17.)
HEK293 cells were transfected with human VR1 vanilloid receptors and washed with Hank's Balanced Salt Solution, dissociated with cell dissociation buffer (Sigma), and then centrifuged at 1000×g for 5 min. Cell pellets were homogenized in cold 20 mM HEPES buffer, pH 7.4, containing 5.8 mM NaCl, 320 mM sucrose, 2 mM MgCl2, 0.75 CaCl2 and 5 mM KCl and centrifuged at 1000×g for 15 min. The resultant supernate was then centrifuged at 40000×g for 15 min. The pelleted membranes were kept in an −80° C. freezer.
Approximately 120 μg protein/ml from membranes were incubated with indicated concentrations of [^3H] RTX in 0.5 ml of the HEPES buffer (pH 7.4) containing 0.25 mg/mL fatty acid-free bovine serum albumin at 37° C. for 60 min. The reaction mixture was then cooled to 4° C., 0.1 mg α1-acid glycoprotein added to each sample and incubated at 4° C. for 15 min. The samples were centrifuged at 18500×g for 15 min. The tip of the microcentrifuge tube containing the pellet was cut off. Bound radioactivity was quantified by scintillation counting. Non-specific binding was tested in the presence of 200 nM unlabeled RTX.

Sequence of hVR1 receptors (Q8NER1 whole entry): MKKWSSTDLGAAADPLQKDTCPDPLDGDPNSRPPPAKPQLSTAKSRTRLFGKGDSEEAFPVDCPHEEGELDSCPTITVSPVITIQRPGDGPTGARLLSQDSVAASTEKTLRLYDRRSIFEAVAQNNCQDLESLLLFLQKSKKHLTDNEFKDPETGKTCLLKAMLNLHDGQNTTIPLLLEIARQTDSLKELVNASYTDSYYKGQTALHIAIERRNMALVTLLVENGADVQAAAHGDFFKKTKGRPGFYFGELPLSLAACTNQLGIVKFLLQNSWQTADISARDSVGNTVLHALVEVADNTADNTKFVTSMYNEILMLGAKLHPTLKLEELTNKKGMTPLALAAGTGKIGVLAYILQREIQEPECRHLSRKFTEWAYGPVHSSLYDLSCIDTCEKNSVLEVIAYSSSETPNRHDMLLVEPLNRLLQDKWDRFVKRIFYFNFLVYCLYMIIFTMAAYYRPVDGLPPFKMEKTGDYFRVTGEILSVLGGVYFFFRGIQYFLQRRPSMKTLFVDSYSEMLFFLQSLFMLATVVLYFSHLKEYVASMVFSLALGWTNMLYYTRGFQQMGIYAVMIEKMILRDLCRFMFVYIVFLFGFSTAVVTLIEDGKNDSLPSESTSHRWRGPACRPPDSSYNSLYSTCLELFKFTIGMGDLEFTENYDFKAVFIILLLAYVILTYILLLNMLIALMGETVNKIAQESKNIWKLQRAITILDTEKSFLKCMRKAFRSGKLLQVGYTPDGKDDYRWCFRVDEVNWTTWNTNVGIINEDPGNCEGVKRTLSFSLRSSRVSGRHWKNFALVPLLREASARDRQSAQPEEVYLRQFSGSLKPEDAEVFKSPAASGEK

Row | Ki [nM] | Compound
1 | 0.89 | O=C(Nc1cccc2cnccc12)N[C@H]1CCc2cc(Br)ccc2[C@H]1Cc1ccccc1 (relative stereo) [Compound 39]
2 | 1.96 | COc1ccc2c(c1)CC[C@@H](NC(=O)Nc1cccc3cnccc13)[C@H]2Cc1cccc(Cl)c1 (relative stereo) [Compound 44]
3 | 8.81 | COc1ccc2c(c1)CC[C@@H](NC(=O)Nc1cccc3cnccc13)[C@@H]2Cc1cccc(Cl)c1 (relative stereo) [Compound 46]
4 | 2.66 | COc1ccc2c(c1)CC[C@@H](NC(=O)Nc1cccc3cnccc13)[C@H]2Cc1ccccc1Cl (relative stereo) [Compound 49]
5 | 12.3 | COc1ccc2c(c1)CC[C@@H](NC(=O)Nc1cccc3cnccc13)[C@@H]2Cc1ccccc1Cl (relative stereo) [Compound 52]
6 | 2730 | O=C(Nc1cccc2cncc(Cl)c12)N[C@H]1CCc2cc(F)ccc2[C@H]1Cc1ccccc1 (relative stereo) [Compound 98]
7 | 1.12 | Cc1cc2c(NC(=O)NC3CCc4cc(F)ccc4C3Cc3ccccc3)cccc2cn1 (single isomer, unassigned) [Compound 81a]
8 | 5.25 | Cc1cc2c(NC(=O)NC3CCc4cc(F)ccc4C3Cc3ccccc3)cccc2cn1 (single isomer, unassigned) [Compound 81b]
9 | 45.4 | O=C(Nc1cccc2c[n+]([O-])ccc12)NC1CCc2cc(F)ccc2C1Cc1ccccc1 (single isomer, unassigned) [Compound 97]
10 | 32.3 | O=C(Nc1cccc2c(Cl)nccc12)NC1CCc2cc(F)ccc2C1Cc1ccccc1 (single isomer, unassigned) [Compound 104]
11 | 98.9 | COc1ccc2c(c1)CCC(NC(=S)NCc1ccc(O)c(OC)c1)C2Cc1ccccc1 (stereo not drawn) [Compound 3, 1-(1-Benzyl-6-methoxy-1,2,3,4-tetrahydro-naphthalen-2-yl)-3-(4-hydroxy-3-methoxy-benzyl)-thiourea]
12 | > 10000 | COc1ccc2c(c1)CCC(NC(=S)NCc1ccc(O)c(OC)c1)C2Cc1cccnc1 (stereo not drawn) [Compound 6]
13 | > 10000 | COc1ccc2c(c1)CCC(NC(=O)NCc1ccc3c(c1)OCO3)C2Cc1ccccc1 (stereo not drawn) [Compound 9]
14 | 13000 | COc1ccc2c(c1)CCC(NC(=O)NCc1ccc(OC)c(OC)c1)C2Cc1ccccc1 (stereo not drawn) [Compound 10]
15 | 3600 | COc1ccc2c(c1)CCC(NC(=O)NCCc1ccc(OC)c(OC)c1)C2Cc1ccccc1 (stereo not drawn) [Compound 13]
16 | > 10000 | COc1ccc2c(c1)CCC(NC(=S)NCc1ccc3c(c1)OCO3)C2Cc1ccccc1 (stereo not drawn) [Compound 14]
17 | 3110 | COc1ccc2c(c1)CCC(NC(=S)NCc1ccc(OC)c(OC)c1)C2Cc1ccccc1 (stereo not drawn) [Compound 15]
18 | 258 | COc1ccc2c(c1)CCC(NC(=O)NCc1ccc(O)c(OC)c1)C2Cc1ccccc1 (stereo not drawn) [Compound 19]
19 | 520 | COCOc1ccc(CNC(=S)NC2CCc3ccccc3C2Cc2ccccc2)cc1OC (stereo not drawn) [Compound 21]
20 | 70900 | COc1ccc2c(c1)CCC(NC(=O)NCc1ccc(N(C)C3CCCCC3)cc1)C2Cc1ccccc1 (stereo not drawn) [Compound 25]
21 | 9.64 | COc1ccc2c(c1)CCC(NC(=O)Nc1cccc3ccc(O)cc13)C2Cc1ccccc1 (stereo not drawn) [Compound 35]
22 | 24.9 | O=C(Nc1cccc2cnccc12)NC1CCc2cc(F)ccc2C1 (stereo not drawn) [Compound 37]
23 | 29.6 | COc1cc2c(cc1OC)C(Cc1ccccc1)C(NC(=O)Nc1cccc3cnccc13)CC2 (stereo not drawn) [Compound 40]
24 | 4.58 | O=C(Nc1cccc2cnccc12)NC1CCc2ccc(Cl)cc2C1Cc1ccccc1 (stereo not drawn) [Compound 41]
25 | 3.66 | O=C(Nc1cccc2cnccc12)NC1CCc2ccccc2C1Cc1ccccc1 (stereo not drawn) [Compound 43]
26 | 1540 | COc1ccc2c(c1)CCC(NC(=O)Nc1cccc3cnccc13)C2Cc1cccnc1 (stereo not drawn) [Compound 45]
27 | 1030 | COc1ccc2c(c1)CCC(NC(=O)Nc1cccc3cnccc13)C2Cc1cccnc1 (stereo not drawn) [Compound 47]
28 | 19.3 | COc1cc2c(cc1OC)C(Cc1ccccc1)C(NC(=O)Nc1cccc3cnccc13)CC2 (stereo not drawn) [Compound 48]

Row | Ki [nM] | Compound
29 | 1.8 | COc1ccc2c(c1)CCC(NC(=O)Nc1cccc3cnccc13)C2Cc1ccc(Cl)cc1 (stereo not drawn) [Compound 50]
30 | 24 | COc1ccc2c(c1)CCC(NC(=O)Nc1cccc3cnccc13)C2 (stereo not drawn) [Compound 51]
31 | 0.48 | COc1ccc2c(c1)CCC(NC(=O)Nc1cccc3cnccc13)C2Cc1ccccc1C(F)(F)F (stereo not drawn) [Compound 53]
32 | 2.04 | COc1ccc2c(c1)CCC(NC(=O)Nc1cccc3cnccc13)C2Cc1cccc(C(F)(F)F)c1 (stereo not drawn) [Compound 54]
33 | 1.55 | COc1ccc2c(c1)CCC(NC(=O)Nc1cccc3cnccc13)C2Cc1ccc(C(F)(F)F)cc1 (stereo not drawn) [Compound 55]
34 | 277 | O=C(Nc1cccc2cnccc12)NC1CCc2cc(O)ccc2C1Cc1ccccc1 (stereo not drawn) [Compound 56]
35 | 2.62 | O=C(Nc1cccc2cnccc12)NC1CCc2cc(Br)ccc2C1 (stereo not drawn) [Compound 58]
36 | 2.6 | O=C(Nc1cccc2cnccc12)NC1CCc2cc(Cl)ccc2C1 (stereo not drawn) [Compound 59]
37 | 4.99 | O=C(NCc1cccc2cnccc12)NC1CCc2cc(F)ccc2C1Cc1ccccc1 (stereo not drawn) [Compound 60, 1-(1-Benzyl-6-fluoro-1,2,3,4-tetrahydronaphthalene-2-yl)-3-isoquinolin-5-ylmethyl-urea]
38 | 3.42 | O=C(Nc1cccc2cnccc12)NC1CCc2ccc(Cl)cc2C1 (stereo not drawn) [Compound 61]
39 | 7.59 | O=C(Nc1cccc2cnccc12)NC1CCc2cccc(Cl)c2C1Cc1ccccc1 (stereo not drawn) [Compound 62]
40 | 16.5 | COc1ccc2c(c1)CCC(NC(=O)Nc1cccc3cnccc13)C2Cc1ccc(C#N)cc1 (stereo not drawn) [Compound 63]
41 | 1.28 | COc1ccc2c(c1)CCC(NC(=O)Nc1cccc3cnccc13)C2Cc1ccc(Br)cc1 (stereo not drawn) [Compound 64]
42 | 1.82 | O=C(Nc1cccc2cnccc12)NC1CCc2cc(F)c(F)cc2C1Cc1ccccc1 (stereo not drawn) [Compound 66]
43 | 1.44 | O=C(Nc1cccc2ccc(O)cc12)NC1CCc2cc(F)ccc2C1Cc1ccccc1 (stereo not drawn) [Compound 67, 1-(1-Benzyl-6-fluoro-1,2,3,4-tetrahydronaphthalene-2-yl)-3-(7-hydroxy-naphthalen-1-yl)-urea]
44 | 2.19 | C=CCC1c2ccc(F)cc2CCC1NC(=O)Nc1cccc2cnccc12 (stereo not drawn) [Compound 69]
45 | 5.55 | COc1ccc(CC2c3ccc(OC)cc3CCC2NC(=O)Nc2cccc3cnccc23)cc1 (stereo not drawn) [Compound 70]
46 | 0.84 | O=C(Nc1cccc2cnccc12)NC1CCc2cc(F)ccc2C1CC1CC1 (stereo not drawn) [Compound 71, 1-(1-cyclopropylmethyl-6-fluoro-1,2,3,4-tetrahydronaphthalene-2-yl)-3-isoquinolin-5-yl-urea]
47 | 7.52 | COc1ccc(CC2c3ccc(OC)cc3CCC2NC(=O)Nc2cccc3cnccc23)cc1 (stereo not drawn) [Compound 72]
48 | 53.4 | COc1ccc2c(c1)CCC(NC(=O)Nc1cccc3cnccc13)C2Cc1ccccc1OC (stereo not drawn) [Compound 73]
49 | 11.3 | COc1ccc2c(c1)CCC(NC(=O)Nc1cccc3cnccc13)C2Cc1ccc(OCc2ccccc2)cc1 (stereo not drawn) [Compound 74]
50 | 3.81 | O=C(Nc1cccc2cnccc12)NC1CCc2cc(F)ccc2C1Cc1cccs1 (stereo not drawn) [Compound 76]
51 | 6.26 | COc1ccc2c(c1)CCC(NC(=O)Nc1cccc3cnccc13)C2Cc1c(F)cccc1F (stereo not drawn) [Compound 77]
52 | 1.7 | O=C(Nc1cccc2cnccc12)NC1CCc2cc(Cl)ccc2C1Cc1ccccc1 (stereo not drawn) [Compound 86]
53 | 2700 | O=C(Nc1cccc2cncc(Cl)c12)NC1CCc2cc(F)ccc2C1Cc1ccccc1 (stereo not drawn) [Compound 99]
54 | 186 | O=C(Nc1cccc2c(Cl)nc(Cl)cc12)NC1CCc2cc(F)ccc2C1Cc1ccccc1 (stereo not drawn) [Compound 108]
55 | 29.2 | O=C(Nc1cccc2c(Cl)nc(Cl)cc12)NC1CCc2cc(F)ccc2C1Cc1ccccc1 (stereo not drawn) [Compound 109]

Row | Compound | Ki [nM]
56 | COc1ccc2c(c1)CCC(NC(=S)NCc1ccc(O)c(OC)c1)C2Cc1c[nH]cn1 (stereo not drawn) [Compound 8] | > 10000
57 | COc1cc(CNC(=S)NC2CCc3ccccc3C2Cc2ccccc2)ccc1O (stereo not drawn) [Compound 23] | 98.2
